A short description of the test: Sensory evaluation of fizziness enhancement in carbonated water (WILKINSON TANSAN), specialized panelists. Format: in vivo. The note with it: for Fizziness enhancement evaluation result: average score of seven panelists. How it is done: In the following Examples, the action and effect were verified using a value obtained by calculating an average score of scores for imparting or enhancing fizziness by sensory evaluation conducted by specialized panelists. The expression “1 point” in the evaluation is the evaluation in the case where no component is added at all (no addition).
Diethyl sebacate (manufactured by Inoue Perfumery Mfg. Co., Ltd., the same applies to the following Examples) was separately added to “WILKINSON (registered trademark) TANSAN (manufactured by Asahi Soft Drinks Co., Ltd.)” so as to reach the concentrations shown in Table 2 below, and sensory evaluation was performed by seven specialized panelists to determine the extent to which fizziness was enhanced as compared with a control in which diethyl sebacate was not added.
Diisobutyl adipate (manufactured by Inoue Perfumery Mfg. Co., Ltd., the same applies to the following Examples) was separately added to “WILKINSON (registered trademark) TANSAN (manufactured by Asahi Soft Drinks Co., Ltd.)” so as to reach the concentrations shown in Table 3 below, and sensory evaluation was performed by seven specialized panelists to determine the extent to which fizziness was enhanced as compared with a control in which diisobutyl adipate was not added.
Dimethyl sebacate (manufactured by Tokyo Chemical Industry Co., Ltd.) was separately added to “WILKINSON (registered trademark) TANSAN (manufactured by Asahi Soft Drinks Co., Ltd.)” so as to reach the concentrations shown in Table 4 below, and sensory evaluation was performed by seven specialized panelists to determine the extent to which fizziness was enhanced as compared with a control in which dimethyl sebacate was not added.
Dipropyl adipate (manufactured by Tokyo Chemical Industry Co., Ltd.) was separately added to “WILKINSON (registered trademark) TANSAN (manufactured by Asahi Soft Drinks Co., Ltd.)” so as to reach the concentrations shown in Table 5 below, and sensory evaluation was performed by seven specialized panelists to determine the extent to which fizziness was enhanced as compared with a control in which dipropyl adipate was not added.

Regarding `COC(=O)CCCCCCCCC(=O)OC` [Dimethyl sebacate, dimethyl sebacate], the “amelioration of mouthfeel (in words)” value was “effect of ameliorating the mouthfeel was also confirmed” and the “fizziness enhancement (in words)” value is “fizziness of carbonated water can be enhanced”. For the same molecule, the “Fizziness enhancement evaluation result” value (0.1 ppm, 1 to 5) was 1.1 points. Further, the “Fizziness enhancement evaluation result” value (0.5 ppm, 1 to 5) was determined as 1.6 points. The “Fizziness enhancement evaluation result” value (1 ppm, 1 to 5) was 2.0 points. The “Fizziness enhancement evaluation result” value (5 ppm, 1 to 5) is given as 2.4 points. Besides, the “Fizziness enhancement evaluation result” value (10 ppm, 1 to 5) came to 3.1 points. Under “20 ppm, 1 to 5”, the “Fizziness enhancement evaluation result” value stood at 2.6 points. Besides, the “Fizziness enhancement evaluation result” value (50 ppm, 1 to 5) is given as 1.4 points. Further, the “Fizziness enhancement evaluation result” value (100 ppm, 1 to 5) is given as 1.3 points.
As for `CCCOC(=O)CCCCC(=O)OCCC` [Dipropyl adipate, dipropyl adipate], the “amelioration of mouthfeel (in words)” value was “effect of ameliorating the mouthfeel was also confirmed” and the “fizziness enhancement (in words)” value is “fizziness of carbonated water can be enhanced”. Further, for the setting “0.1 ppm, 1 to 5”, the “Fizziness enhancement evaluation result” value is 1.1 points. Further, the “Fizziness enhancement evaluation result” value (0.5 ppm, 1 to 5) is given as 1.4 points. Moreover, for the setting “1 ppm, 1 to 5”, the “Fizziness enhancement evaluation result” value is 1.9 points. Also, the “Fizziness enhancement evaluation result” value (5 ppm, 1 to 5) amounted to 2.6 points. The “Fizziness enhancement evaluation result” value (10 ppm, 1 to 5) is on record as 3.0 points. Moreover, the “Fizziness enhancement evaluation result” value (20 ppm, 1 to 5) worked out at 1.7 points. Moreover, where the note is “50 ppm, 1 to 5”, the “Fizziness enhancement evaluation result” value was 1.4 points. In addition, the “Fizziness enhancement evaluation result” value (100 ppm, 1 to 5) was found to be 1.1 points.
`CC(C)COC(=O)CCCCC(=O)OCC(C)C` [Diisobutyl adipate, diisobutyl adipate]: the “amelioration of mouthfeel (in words)” value is listed as “effect of ameliorating the mouthfeel was also confirmed” and the “fizziness enhancement (in words)” value is listed as “fizziness of carbonated water can be enhanced”. Moreover, where the note is “0.005 ppm, 1 (not enhanced) to 5 (extremely enhanced)”, the “Fizziness enhancement evaluation result” value is given as 1.1 points. Also, the “Fizziness enhancement evaluation result” value (0.01 ppm, 1 to 5) was 1.6 points. The “Fizziness enhancement evaluation result” value (0.1 ppm, 1 to 5) came out at 3.4 points. For the same molecule, the “Fizziness enhancement evaluation result” value (0.5 ppm, 1 to 5) is given as 3.6 points. For the same molecule, the “Fizziness enhancement evaluation result” value (1 ppm, 1 to 5) was 3.4 points. For the same molecule, the “Fizziness enhancement evaluation result” value (5 ppm, 1 to 5) is 1.7 points. For the same molecule, the “Fizziness enhancement evaluation result” value (10 ppm, 1 to 5) stood at 1.3 points.

The values are drawn from patent publication US20260293949A1, “CARBONATION SENSATION IMPARTING OR ENHANCING AGENT” (TAKASAGO INTERNATIONAL CORPORATION, priority 2022, published 2026).
